In US20250059220A1, “SUBSTITUTED BENZOTHIOPHENE DERIVATIVES AND METHODS OF USE THEREOF” (Merck Sharp & Dohme LLC, priority 2021, published 2025):

What was measured:
human PTPN1 (1-435) = human PTPN1 (1-435) (Homo sapiens (Human), UniProt P18031); test: Human PTPN1 Biochemical Assay; settings: DiFMUP substrate, read-out: PTP1B IC50
In short: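 Read-out is DiFMUP hydrolysis fluorescence (360 nm excitation, 460 nm emission) after 1 h at room temperature, following 30 min enzyme–compound preincubation.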

human PTPN2 (1-387) = human PTPN2 (1-387) (Homo sapiens (Human), UniProt P17706); test: Human PTPN2 Biochemical Assay; settings: DiFMUP substrate
Chain of human PTPN2 (1-387) (P17706 other isoform, or with tags, fused parts or gaps): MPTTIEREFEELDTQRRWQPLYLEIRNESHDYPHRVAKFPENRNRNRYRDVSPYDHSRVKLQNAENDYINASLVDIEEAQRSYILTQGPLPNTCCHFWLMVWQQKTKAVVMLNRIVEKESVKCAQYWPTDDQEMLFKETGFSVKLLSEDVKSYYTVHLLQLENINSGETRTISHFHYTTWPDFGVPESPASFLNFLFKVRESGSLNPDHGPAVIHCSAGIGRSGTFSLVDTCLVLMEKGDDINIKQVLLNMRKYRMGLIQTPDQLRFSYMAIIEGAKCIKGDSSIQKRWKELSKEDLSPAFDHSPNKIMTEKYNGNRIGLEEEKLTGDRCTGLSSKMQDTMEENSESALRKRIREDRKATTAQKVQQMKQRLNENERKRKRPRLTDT
In short: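 Fluorogenic DiFMUP hydrolysis (1 h, room temperature, read ex 360/em 460 nm) after 30 min compound preincubation with PTPN2 residues 1-387, in 50 mM Tris pH 7.4, 150 mM NaCl, 0.01% Tween20, 0.5 mM DTT. Effects scaled between buffer and enzyme controls, 4-parameter fit gives EC50.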

Chain of human PTPN1 (1-435) (P18031 whole entry): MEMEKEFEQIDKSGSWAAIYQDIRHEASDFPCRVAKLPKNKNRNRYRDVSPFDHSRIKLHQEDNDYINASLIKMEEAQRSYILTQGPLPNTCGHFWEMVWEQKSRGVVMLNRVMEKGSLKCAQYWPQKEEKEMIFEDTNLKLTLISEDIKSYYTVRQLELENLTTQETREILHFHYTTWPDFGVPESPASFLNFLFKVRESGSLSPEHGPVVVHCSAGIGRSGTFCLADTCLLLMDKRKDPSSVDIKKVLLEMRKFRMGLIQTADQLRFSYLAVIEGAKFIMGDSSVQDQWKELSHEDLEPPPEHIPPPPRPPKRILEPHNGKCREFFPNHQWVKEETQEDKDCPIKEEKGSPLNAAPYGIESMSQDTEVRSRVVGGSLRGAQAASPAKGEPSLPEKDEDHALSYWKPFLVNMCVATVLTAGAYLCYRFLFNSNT

Compound	IC50 (human PTPN1 (1-435))	IC50 (human PTPN2 (1-387))
COc1cc(C(=O)NCc2cccnn2)cc2c(Br)c(C(F)(F)P(=O)(O)O)sc12 [Compound 163]	436 nM	301 nM
O=C(NCc1cccnn1)c1cc(F)c2sc(C(F)(F)P(=O)(O)O)c(Br)c2c1 [Compound 164]	361 nM	435 nM
O=C(NCc1c[nH]nn1)c1cc(F)c2sc(C(F)(F)P(=O)(O)O)c(Br)c2c1 [Compound 165]	675 nM	390 nM
O=C(NCc1cccnn1)c1cc(O)c2sc(C(F)(F)P(=O)(O)O)c(Br)c2c1 [Compound 166]	3160 nM	3600 nM
O=C(NCc1c[nH]nn1)c1cc(O)c2sc(C(F)(F)P(=O)(O)O)c(Br)c2c1 [Compound 167]	3560 nM	3070 nM
NC(=O)c1cc(OCCCC(F)(F)F)c2sc(C(F)(F)P(=O)(O)O)c(Br)c2c1 [Compound 168]	28.2 nM	29.7 nM
CC(C)(O)CCOc1cc(C(N)=O)cc2c(Br)c(C(F)(F)P(=O)(O)O)sc12 [Compound 170]	518 nM	636 nM
N#Cc1c(C(F)(F)P(=O)(O)O)sc2ccc(C(=O)NCc3ncn[nH]3)cc12 [Compound 171]	2180 nM	1470 nM
N#Cc1c(C(F)(F)P(=O)(O)O)sc2ccc(C(=O)NCc3cccnn3)cc12 [Compound 172]	663 nM	581 nM
N#Cc1c(C(F)(F)P(=O)(O)O)sc2ccc(C(=O)NCc3c[nH]nn3)cc12 [Compound 173]	738 nM	578 nM
O=C(NCc1ncc[nH]1)c1ccc2sc(C(F)(F)P(=O)(O)O)c(Br)c2c1 [Compound 174]	8610 nM	4140 nM
CC(NC(=O)c1ccc2sc(C(F)(F)P(=O)(O)O)c(Br)c2c1)c1nncn1C (stereo not shown) [Compound 175]	1420 nM	2020 nM
C[C@@H](NC(=O)c1ccc2sc(C(F)(F)P(=O)(O)O)c(Br)c2c1)c1ccnn1C [Compound 176]	2680 nM	4720 nM
CCC(NC(=O)c1ccc2sc(C(F)(F)P(=O)(O)O)c(Br)c2c1)c1cccnc1 (stereo not shown) [Compound 177]	839 nM	2070 nM
Cn1cnc(CNC(=O)c2ccc3sc(C(F)(F)P(=O)(O)O)c(Br)c3c2)c1 [Compound 178]	10800 nM	5820 nM
O=C(NCc1ccon1)c1ccc2sc(C(F)(F)P(=O)(O)O)c(Br)c2c1 [Compound 179]	2840 nM	2570 nM
O=C(NC1(c2cccnc2)CC1)c1ccc2sc(C(F)(F)P(=O)(O)O)c(Br)c2c1 [Compound 180]	13700 nM	6630 nM
Cn1cnc(CNC(=O)c2ccc3sc(C(F)(F)P(=O)(O)O)c(Br)c3c2)n1 [Compound 181]	2420 nM	4100 nM
C[C@@H](NC(=O)c1ccc2sc(C(F)(F)P(=O)(O)O)c(Br)c2c1)c1ncc(F)cn1 [Compound 182]	2650 nM	5080 nM
Cc1cnc(F)c(CNC(=O)c2ccc3sc(C(F)(F)P(=O)(O)O)c(Br)c3c2)c1 [Compound 183]	1410 nM	2000 nM
O=C(NCc1ncc(F)cn1)c1ccc2sc(C(F)(F)P(=O)(O)O)c(Br)c2c1 [Compound 184]	4970 nM	7340 nM
C[C@H](NC(=O)c1ccc2sc(C(F)(F)P(=O)(O)O)c(Br)c2c1)c1ccccn1 [Compound 185]	3390 nM	5200 nM
C[C@@H](NC(=O)c1ccc2sc(C(F)(F)P(=O)(O)O)c(C#N)c2c1)c1cccnn1 [Compound 186]	1380 nM	648 nM
O=C(NCc1n[nH]c(=O)[nH]1)c1ccc2sc(C(F)(F)P(=O)(O)O)c(Br)c2c1 [Compound 187]	961 nM	1860 nM

Compound	IC50 (human PTPN1 (1-435))	IC50 (human PTPN2 (1-387))
O=C(NCc1cnsn1)c1ccc2sc(C(F)(F)P(=O)(O)O)c(Br)c2c1 [Compound 188]	714 nM	1410 nM
O=C(NCc1cc(C2CC2)on1)c1ccc2sc(C(F)(F)P(=O)(O)O)c(Br)c2c1 [Compound 189]	990 nM	1320 nM
Cc1cc(CNC(=O)c2ccc3sc(C(F)(F)P(=O)(O)O)c(Br)c3c2)no1 [Compound 190]	1020 nM	1830 nM
CCC(NC(=O)c1ccc2sc(C(F)(F)P(=O)(O)O)c(Br)c2c1)c1ncnn1C (stereo not shown) [Compound 191]	3600 nM	2820 nM
O=C(NC(CO)c1ccccn1)c1ccc2sc(C(F)(F)P(=O)(O)O)c(Br)c2c1 (stereo not shown) [Compound 192]	4590 nM	7980 nM
Cn1nncc1CNC(=O)c1ccc2sc(C(F)(F)P(=O)(O)O)c(Br)c2c1 [Compound 193]	3140 nM	5840 nM
CC(NC(=O)c1ccc2sc(C(F)(F)P(=O)(O)O)c(Br)c2c1)c1ccon1 (stereo not shown) [Compound 194]	1740 nM	3200 nM
CCc1nc(CNC(=O)c2ccc3sc(C(F)(F)P(=O)(O)O)c(Br)c3c2)no1 [Compound 195]	2740 nM	5540 nM
CCc1noc(CNC(=O)c2ccc3sc(C(F)(F)P(=O)(O)O)c(Br)c3c2)n1 [Compound 196]	2100 nM	3540 nM
CCC(NC(=O)c1ccc2sc(C(F)(F)P(=O)(O)O)c(Br)c2c1)c1ccccn1 (stereo not shown) [Compound 197]	7210 nM	9460 nM
Cc1c[nH]c(CNC(=O)c2ccc3sc(C(F)(F)P(=O)(O)O)c(Br)c3c2)n1 [Compound 198]	5710 nM	5460 nM
C[C@@H](NC(=O)c1ccc2sc(C(F)(F)P(=O)(O)O)c(Br)c2c1)c1cccnc1 [Compound 199]	1190 nM	1710 nM
C[C@H](NC(=O)c1ccc2sc(C(F)(F)P(=O)(O)O)c(Br)c2c1)c1cccnc1 [Compound 200]	976 nM	1470 nM
O=C(NCc1cc[nH]n1)c1cc(OCCCC(F)(F)F)c2sc(C(F)(F)P(=O)(O)O)c(Br)c2c1 [Compound 201]	10.9 nM	9.06 nM
O=C(NCc1cc[nH]n1)c1ccc2sc(C(F)(F)P(=O)(O)O)c(Br)c2c1 [Compound 202]	2320 nM	3650 nM
CNC(=O)c1cc(OCCCC(F)(F)F)c2sc(C(F)(F)P(=O)(O)O)c(Br)c2c1 [Compound 203]	17.2 nM	16.4 nM
CN(C)C(=O)c1cc(OCCCC(F)(F)F)c2sc(C(F)(F)P(=O)(O)O)c(Br)c2c1 [Compound 204]	1430 nM	1260 nM
O=C(Nc1ccccc1)c1cc(OCCCC(F)(F)F)c2sc(C(F)(F)P(=O)(O)O)c(Br)c2c1 [Compound 205]	7.5 nM	6.95 nM
O=C(NC1CC(F)(F)C1)c1cc(OCCCC(F)(F)F)c2sc(C(F)(F)P(=O)(O)O)c(Br)c2c1 [Compound 206]	9 nM	8.04 nM
O=C(NC1CC1(F)F)c1cc(OCCCC(F)(F)F)c2sc(C(F)(F)P(=O)(O)O)c(Br)c2c1 (stereo not shown) [Compound 207]	11.6 nM	9.79 nM
C[C@@H](NC(=O)c1cc(OCCCC(F)(F)F)c2sc(C(F)(F)P(=O)(O)O)c(Br)c2c1)c1cccnn1 [Compound 208]	7.5 nM	6.96 nM
O=C(NCc1c[nH]nn1)c1cc(OCCCC(F)(F)F)c2sc(C(F)(F)P(=O)(O)O)c(Br)c2c1 [Compound 209]	6.5 nM	4.63 nM
C=C(C)C#Cc1cc(C(N)=O)cc2c(Br)c(C(F)(F)P(=O)(O)O)sc12 [Compound 210]	132 nM	13.7 nM
